Measured values taken from the kinase profiling compilation of Christmann-Franck et al. (2016).

Experiments:
Test in all cases: radiometric filter-binding kinase assay, Kinase HotSpot
Conditions in all cases: compound 0.5 µM; ATP 10 µM
NEK4 (human) = NEK4 (human) (UniProt P51957)
TGFBR1 (human) = TGFBR1 (human) (UniProt P36897)
MINK1 (human) = MINK1 (human) (UniProt Q8N4C8)
CDK1 CCNB1 (human) = CDK1 CCNB1 (human) (UniProt P06493+P14635)
MELK (human) = MELK (human) (UniProt Q14680)
PRKCZ (human) = PRKCZ (human) (UniProt Q05513)
AKT3 (human) = AKT3 (human) (UniProt Q9Y243)
CDK2 CCNE1 (human) = CDK2 CCNE1 (human) (UniProt P24941+P24864)
ALK (human) = ALK (human) (UniProt Q9UM73)
PRKCG (human) = PRKCG (human) (UniProt P05129)
CAMKK1 (human) = CAMKK1 (human) (UniProt Q8N5S9)
PDGFRA (human) = PDGFRA (human) (UniProt P16234)
CDK3 CCNE1 (human) = CDK3 CCNE1 (human) (UniProt Q00526+P24864)
PRKD1 (human) = PRKD1 (human) (UniProt Q15139)
Sequence of PRKD1 (human) (Q15139 whole entry, looked up): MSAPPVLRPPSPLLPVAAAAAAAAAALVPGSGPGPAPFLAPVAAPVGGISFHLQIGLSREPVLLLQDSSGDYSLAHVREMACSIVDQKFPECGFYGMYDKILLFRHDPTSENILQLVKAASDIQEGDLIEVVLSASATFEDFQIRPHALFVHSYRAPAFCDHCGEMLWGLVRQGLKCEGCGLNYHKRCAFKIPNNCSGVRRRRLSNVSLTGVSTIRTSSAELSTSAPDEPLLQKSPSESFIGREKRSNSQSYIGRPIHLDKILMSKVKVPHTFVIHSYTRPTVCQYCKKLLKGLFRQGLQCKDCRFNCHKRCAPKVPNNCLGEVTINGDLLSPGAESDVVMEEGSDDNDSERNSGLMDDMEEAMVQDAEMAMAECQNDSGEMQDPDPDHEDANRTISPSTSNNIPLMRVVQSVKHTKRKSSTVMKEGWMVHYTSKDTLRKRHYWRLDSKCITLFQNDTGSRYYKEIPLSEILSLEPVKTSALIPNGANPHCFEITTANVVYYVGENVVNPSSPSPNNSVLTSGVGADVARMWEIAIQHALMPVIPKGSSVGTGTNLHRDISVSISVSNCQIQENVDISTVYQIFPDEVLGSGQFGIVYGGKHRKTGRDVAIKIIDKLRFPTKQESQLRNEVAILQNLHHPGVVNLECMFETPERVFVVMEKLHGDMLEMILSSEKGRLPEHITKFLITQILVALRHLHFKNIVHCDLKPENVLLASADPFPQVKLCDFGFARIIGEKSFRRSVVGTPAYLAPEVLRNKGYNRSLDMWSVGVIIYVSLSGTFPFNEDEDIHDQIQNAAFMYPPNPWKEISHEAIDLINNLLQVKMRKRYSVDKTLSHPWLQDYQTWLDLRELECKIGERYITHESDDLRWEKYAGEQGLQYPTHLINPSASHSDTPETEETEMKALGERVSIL

SRPK1 (human) = SRPK1 (human) (UniProt Q96SB4)
PRKCI (human) = PRKCI (human) (UniProt P41743)
HIPK3 (human) = HIPK3 (human) (UniProt Q9H422)
GRK6 (human) = GRK6 (human) (UniProt P43250)
STK25 (human) = STK25 (human) (UniProt O00506)
EPHA7 (human) = EPHA7 (human) (UniProt Q15375)
WNK3 (human) = WNK3 (human) (UniProt Q9BYP7)
CSNK1G1 (human) = CSNK1G1 (human) (UniProt Q9HCP0)
Sequence of CSNK1G1 (human) (Q9HCP0 whole entry, looked up): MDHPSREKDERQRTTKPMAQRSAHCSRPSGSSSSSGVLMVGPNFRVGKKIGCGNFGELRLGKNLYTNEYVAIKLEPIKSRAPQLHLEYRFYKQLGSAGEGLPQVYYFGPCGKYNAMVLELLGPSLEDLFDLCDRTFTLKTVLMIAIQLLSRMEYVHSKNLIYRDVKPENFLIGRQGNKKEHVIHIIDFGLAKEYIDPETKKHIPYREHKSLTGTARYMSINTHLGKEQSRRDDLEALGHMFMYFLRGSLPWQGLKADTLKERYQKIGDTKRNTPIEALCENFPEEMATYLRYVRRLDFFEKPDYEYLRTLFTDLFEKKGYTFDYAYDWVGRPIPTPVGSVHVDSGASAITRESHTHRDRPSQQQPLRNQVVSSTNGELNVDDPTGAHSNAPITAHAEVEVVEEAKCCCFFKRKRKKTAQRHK

MAP4K4 (human) = MAP4K4 (human) (UniProt O95819)
CDK7 CCNH MNAT1 (human) = CDK7 CCNH MNAT1 (human) (UniProt P50613+P51948+P51946)
MKNK2 (human) = MKNK2 (human) (UniProt Q9HBH9)
CAMK1 (human) = CAMK1 (human) (UniProt Q14012)
CHUK (human) = CHUK (human) (UniProt O15111)
Sequence of CHUK (human) (O15111 whole entry, looked up): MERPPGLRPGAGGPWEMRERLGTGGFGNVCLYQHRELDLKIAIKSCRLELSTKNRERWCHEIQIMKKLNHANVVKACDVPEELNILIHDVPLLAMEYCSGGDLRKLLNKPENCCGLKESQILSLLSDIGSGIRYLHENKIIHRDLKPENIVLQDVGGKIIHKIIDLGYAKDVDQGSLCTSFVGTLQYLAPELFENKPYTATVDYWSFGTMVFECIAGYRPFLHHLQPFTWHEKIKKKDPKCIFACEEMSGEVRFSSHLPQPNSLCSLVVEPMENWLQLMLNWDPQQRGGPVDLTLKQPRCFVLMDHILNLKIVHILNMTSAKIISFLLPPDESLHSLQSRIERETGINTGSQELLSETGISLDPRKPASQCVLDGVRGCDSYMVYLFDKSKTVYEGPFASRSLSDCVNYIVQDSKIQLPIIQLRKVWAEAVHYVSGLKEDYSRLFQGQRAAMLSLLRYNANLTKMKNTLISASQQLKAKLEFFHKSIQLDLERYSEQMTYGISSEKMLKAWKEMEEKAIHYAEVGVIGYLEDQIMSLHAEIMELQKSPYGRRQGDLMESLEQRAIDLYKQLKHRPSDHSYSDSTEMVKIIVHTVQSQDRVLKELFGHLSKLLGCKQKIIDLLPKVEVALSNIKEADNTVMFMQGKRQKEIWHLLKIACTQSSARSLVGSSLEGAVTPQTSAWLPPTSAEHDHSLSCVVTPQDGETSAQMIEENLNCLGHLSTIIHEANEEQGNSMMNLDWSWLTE

SRMS (human) = SRMS (human) (UniProt Q9H3Y6)
Sequence of SRMS (human) (Q9H3Y6 whole entry, looked up): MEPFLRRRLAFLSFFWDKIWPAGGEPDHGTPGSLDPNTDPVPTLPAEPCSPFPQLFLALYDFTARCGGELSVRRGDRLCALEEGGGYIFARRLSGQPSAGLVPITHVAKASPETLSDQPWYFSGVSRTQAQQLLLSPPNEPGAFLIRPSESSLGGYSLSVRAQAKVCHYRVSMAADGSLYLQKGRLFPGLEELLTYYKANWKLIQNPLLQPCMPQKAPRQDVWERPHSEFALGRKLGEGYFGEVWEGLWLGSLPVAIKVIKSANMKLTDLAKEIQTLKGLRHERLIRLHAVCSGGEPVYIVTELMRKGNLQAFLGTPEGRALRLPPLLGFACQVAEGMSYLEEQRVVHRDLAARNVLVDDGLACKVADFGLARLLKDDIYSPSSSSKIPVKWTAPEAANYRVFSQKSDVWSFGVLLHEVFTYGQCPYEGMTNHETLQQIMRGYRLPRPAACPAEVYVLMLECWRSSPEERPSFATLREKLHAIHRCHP

EGFR (human) = EGFR (human) (UniProt P00533)
GRK5 (human) = GRK5 (human) (UniProt P34947)
ADRBK1 (human) = ADRBK1 (human) (UniProt P25098)
ACVR1 (human) = ACVR1 (human) (UniProt Q04771)
NTRK1 (human) = NTRK1 (human) (UniProt P04629)
CAMK2B (human) = CAMK2B (human) (UniProt Q13554)
PRKCA (human) = PRKCA (human) (UniProt P17252)
LIMK1 (human) = LIMK1 (human) (UniProt P53667)
LCK (human) = LCK (human) (UniProt P06239)
DYRK1A (human) = DYRK1A (human) (UniProt Q13627)
PRKD3 (human) = PRKD3 (human) (UniProt O94806)
NEK2 (human) = NEK2 (human) (UniProt P51955)
Sequence of NEK2 (human) (P51955 whole entry, looked up): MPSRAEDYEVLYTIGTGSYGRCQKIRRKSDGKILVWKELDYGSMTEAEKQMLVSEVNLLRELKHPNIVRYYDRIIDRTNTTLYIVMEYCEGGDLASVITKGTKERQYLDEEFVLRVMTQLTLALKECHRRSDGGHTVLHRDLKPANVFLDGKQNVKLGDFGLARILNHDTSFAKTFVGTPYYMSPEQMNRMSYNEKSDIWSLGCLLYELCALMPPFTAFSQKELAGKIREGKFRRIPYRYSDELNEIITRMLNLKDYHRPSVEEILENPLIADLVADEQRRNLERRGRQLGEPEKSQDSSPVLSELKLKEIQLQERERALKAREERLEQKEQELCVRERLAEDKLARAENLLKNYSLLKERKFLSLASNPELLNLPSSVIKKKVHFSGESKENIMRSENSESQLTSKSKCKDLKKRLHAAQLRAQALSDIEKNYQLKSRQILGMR

PDGFRB (human) = PDGFRB (human) (UniProt P09619)
CAMK1D (human) = CAMK1D (human) (UniProt Q8IU85)

Sequence of MINK1 (human) (Q8N4C8 whole entry, looked up): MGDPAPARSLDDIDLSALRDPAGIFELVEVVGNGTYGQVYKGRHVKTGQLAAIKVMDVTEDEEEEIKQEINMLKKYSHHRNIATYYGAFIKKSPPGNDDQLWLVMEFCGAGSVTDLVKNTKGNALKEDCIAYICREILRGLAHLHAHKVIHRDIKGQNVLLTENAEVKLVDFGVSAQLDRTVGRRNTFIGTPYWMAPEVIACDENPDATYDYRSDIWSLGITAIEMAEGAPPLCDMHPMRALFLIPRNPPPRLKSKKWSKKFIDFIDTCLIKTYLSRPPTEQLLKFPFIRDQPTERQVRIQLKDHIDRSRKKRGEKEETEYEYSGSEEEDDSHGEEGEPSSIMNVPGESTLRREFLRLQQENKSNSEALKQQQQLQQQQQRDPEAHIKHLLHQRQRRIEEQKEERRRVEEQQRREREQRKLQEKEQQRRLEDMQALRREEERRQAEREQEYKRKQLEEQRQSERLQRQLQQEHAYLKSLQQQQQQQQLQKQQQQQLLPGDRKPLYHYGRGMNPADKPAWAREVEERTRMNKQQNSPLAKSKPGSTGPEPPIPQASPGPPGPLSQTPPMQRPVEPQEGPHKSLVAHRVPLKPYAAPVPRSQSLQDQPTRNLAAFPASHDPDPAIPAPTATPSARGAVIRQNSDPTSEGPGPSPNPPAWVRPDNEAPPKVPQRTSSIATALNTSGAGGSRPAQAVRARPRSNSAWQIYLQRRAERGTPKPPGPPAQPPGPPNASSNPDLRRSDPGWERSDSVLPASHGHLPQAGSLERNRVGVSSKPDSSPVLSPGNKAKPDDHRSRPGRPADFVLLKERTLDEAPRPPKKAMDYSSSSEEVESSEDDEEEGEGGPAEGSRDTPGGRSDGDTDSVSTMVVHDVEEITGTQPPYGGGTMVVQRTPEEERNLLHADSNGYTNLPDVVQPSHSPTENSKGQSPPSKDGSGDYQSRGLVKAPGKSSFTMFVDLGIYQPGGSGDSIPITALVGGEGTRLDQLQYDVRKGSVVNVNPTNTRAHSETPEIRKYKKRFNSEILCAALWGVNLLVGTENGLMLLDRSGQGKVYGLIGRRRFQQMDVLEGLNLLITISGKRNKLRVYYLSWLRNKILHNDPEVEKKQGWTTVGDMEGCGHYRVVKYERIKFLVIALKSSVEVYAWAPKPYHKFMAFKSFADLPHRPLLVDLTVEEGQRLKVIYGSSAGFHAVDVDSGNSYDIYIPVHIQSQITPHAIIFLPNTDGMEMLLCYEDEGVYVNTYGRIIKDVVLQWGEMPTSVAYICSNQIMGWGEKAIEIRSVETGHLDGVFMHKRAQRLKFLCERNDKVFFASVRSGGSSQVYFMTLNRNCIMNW

How did the residual activity (NEK4 (human)) turn out when `CC(C)N(CCC(=O)c1ccc2ccccc2c1)Cc1ccccc1` was run?
Its residual activity is 95.7%.

And the residual activity (TGFBR1 (human))?
Its residual activity is 92.5%.

And the residual activity (MINK1 (human))?
Its residual activity is 101%.

What about the residual activity (CDK1 CCNB1 (human)) of the same compound?
Its residual activity is 104%.

And the residual activity (MELK (human))?
The residual activity was 99.4%.

And the residual activity (PRKCZ (human))?
Its residual activity is 100%.

What about the residual activity (AKT3 (human)) of the same compound?
Its residual activity is 95.8%.

And the residual activity (CDK2 CCNE1 (human))?
The residual activity was 89.2%.

What about the residual activity (ALK (human)) of the same compound?
Its residual activity is 88.9%.

What about the residual activity (PRKCG (human)) of the same compound?
Its residual activity is 92.7%.

And the residual activity (CAMKK1 (human))?
Its residual activity is 104%.

And the residual activity (PDGFRA (human))?
Its residual activity is 96.5%.

What about the residual activity (CDK3 CCNE1 (human)) of the same compound?
Its residual activity is 91.4%.

And the residual activity (PRKD1 (human))?
Its residual activity is 98%.

What about the residual activity (SRPK1 (human)) of the same compound?
Its residual activity is 103%.

What about the residual activity (PRKCI (human)) of the same compound?
Its residual activity is 97.1%.

And the residual activity (HIPK3 (human))?
The residual activity was 115%.

What about the residual activity (GRK6 (human)) of the same compound?
Its residual activity is 87.1%.

And the residual activity (STK25 (human))?
The residual activity was 94%.

What about the residual activity (EPHA7 (human)) of the same compound?
Its residual activity is 106%.

What about the residual activity (WNK3 (human)) of the same compound?
The residual activity was 97%.

What about the residual activity (CSNK1G1 (human)) of the same compound?
Its residual activity is 101%.

What about the residual activity (MAP4K4 (human)) of the same compound?
The residual activity was 96.7%.

And the residual activity (CDK7 CCNH MNAT1 (human))?
The residual activity was 98%.

And the residual activity (MKNK2 (human))?
Its residual activity is 100%.

What about the residual activity (CAMK1 (human)) of the same compound?
Its residual activity is 104%.

And the residual activity (CHUK (human))?
The residual activity was 96.4%.

What about the residual activity (SRMS (human)) of the same compound?
The residual activity was 103%.

And the residual activity (EGFR (human))?
Its residual activity is 99.4%.

And the residual activity (GRK5 (human))?
The residual activity was 93.7%.

What about the residual activity (ADRBK1 (human)) of the same compound?
The residual activity was 106%.

And the residual activity (ACVR1 (human))?
Its residual activity is 93.6%.

What about the residual activity (NTRK1 (human)) of the same compound?
The residual activity was 94.8%.

And the residual activity (CAMK2B (human))?
Its residual activity is 96.6%.

And the residual activity (PRKCA (human))?
Its residual activity is 107%.

What about the residual activity (LIMK1 (human)) of the same compound?
The residual activity was 103%.

What about the residual activity (LCK (human)) of the same compound?
Its residual activity is 98.9%.

And the residual activity (DYRK1A (human))?
Its residual activity is 105%.

What about the residual activity (PRKD3 (human)) of the same compound?
The residual activity was 98.1%.

What about the residual activity (NEK2 (human)) of the same compound?
Its residual activity is 86.9%.

For `Oc1cccc(-c2nc(N3CCOCC3)c3oc4ncccc4c3n2)c1`, which residual activity (NEK4 (human)) is on record?
The residual activity was 90.4%.

What about the residual activity (TGFBR1 (human)) of the same compound?
The residual activity was 95%.

And the residual activity (MINK1 (human))?
Its residual activity is 96%.

And the residual activity (CDK1 CCNB1 (human))?
The residual activity was 108%.

What about the residual activity (MELK (human)) of the same compound?
Its residual activity is 75.5%.

What about the residual activity (PRKCZ (human)) of the same compound?
The residual activity was 99.1%.

And the residual activity (AKT3 (human))?
The residual activity was 99%.

What about the residual activity (CDK2 CCNE1 (human)) of the same compound?
The residual activity was 85.5%.

And the residual activity (ALK (human))?
Its residual activity is 90.5%.

And the residual activity (PRKCG (human))?
The residual activity was 102%.

And the residual activity (CAMKK1 (human))?
The residual activity was 84.6%.

What about the residual activity (PDGFRA (human)) of the same compound?
The residual activity was 99.4%.

And the residual activity (CDK3 CCNE1 (human))?
Its residual activity is 93.9%.

What about the residual activity (PRKD1 (human)) of the same compound?
The residual activity was 98.3%.

What about the residual activity (SRPK1 (human)) of the same compound?
Its residual activity is 105%.

What about the residual activity (PRKCI (human)) of the same compound?
The residual activity was 94.9%.

What about the residual activity (HIPK3 (human)) of the same compound?
Its residual activity is 93.8%.

What about the residual activity (PDGFRB (human)) of the same compound?
The residual activity was 99.2%.

What about the residual activity (GRK6 (human)) of the same compound?
Its residual activity is 98.2%.

What about the residual activity (STK25 (human)) of the same compound?
Its residual activity is 93.4%.

And the residual activity (EPHA7 (human))?
The residual activity was 93.9%.

And the residual activity (WNK3 (human))?
Its residual activity is 93.9%.

And the residual activity (CSNK1G1 (human))?
The residual activity was 89.4%.

And the residual activity (MAP4K4 (human))?
The residual activity was 91.4%.

What about the residual activity (CAMK1D (human)) of the same compound?
The residual activity was 121%.

And the residual activity (CDK7 CCNH MNAT1 (human))?
The residual activity was 99.9%.

What about the residual activity (MKNK2 (human)) of the same compound?
The residual activity was 92.6%.

What about the residual activity (CAMK1 (human)) of the same compound?
Its residual activity is 101%.

What about the residual activity (CHUK (human)) of the same compound?
The residual activity was 94.8%.

What about the residual activity (SRMS (human)) of the same compound?
The residual activity was 96.2%.

And the residual activity (EGFR (human))?
The residual activity was 83.8%.

What about the residual activity (ADRBK1 (human)) of the same compound?
Its residual activity is 107%.

And the residual activity (ACVR1 (human))?
Its residual activity is 105%.

What about the residual activity (NTRK1 (human)) of the same compound?
Its residual activity is 94.9%.

And the residual activity (CAMK2B (human))?
The residual activity was 98.2%.

And the residual activity (PRKCA (human))?
Its residual activity is 103%.

And the residual activity (LIMK1 (human))?
The residual activity was 93.7%.

What about the residual activity (LCK (human)) of the same compound?
Its residual activity is 98%.

And the residual activity (DYRK1A (human))?
The residual activity was 94.3%.

And the residual activity (PRKD3 (human))?
The residual activity was 92.9%.

What about the residual activity (NEK2 (human)) of the same compound?
Its residual activity is 88.6%.
